Legend:
in vivo [1] = settings: Wistar, rat, po, 3 mg/kg
in vivo [2] = settings: Wistar, rat, po, 3 mg/kg; remark: listed apart in the source
in vivo [3] = settings: Wistar, rat
in vivo [4] = settings: Wistar, rat, iv, 1 mg/kg
in vivo [5] = settings: Wistar, rat, po, 10 mg/kg
in vitro [6] = settings: rat, liver microsomes
in vitro [7] = settings: human, liver microsomes

Row | Compound | bioavailability (in vivo [1]) [%] | Cmax (in vivo [2]) [ng/mL] | AUC (in vivo [3]) [ng·h/mL] | clearance (in vivo [4]) [mL/min/kg] | Kp at 1 h (in vivo [5]; brain and plasma) | metabolised at 0.5 h (in vitro [6]) [%] | metabolised at 0.5 h (in vitro [7]) [%] | Kp at 1 h (in vivo [5]; brain)
1 | OC1(CN2CCC(COc3noc4cccc(O[C@@H]5CCOC5)c34)CC2)CCOCC1 [PF-04995274] | 5.4 | 85 | 94 | 29 | 0.7 | 87.3 | 71.9 | –
2 | COCCCN1CCC(CNC(=O)c2cccn3nc(C(C)C)nc23)CC1 | – | – | – | – | – | 23.4 | 2.7 | –
3 | CC(C)c1nc(C(=O)NCC2C3CN(C4CCOCC4)CC23)n2ccccc12 (stereo unspecified) | 15 | 60 | 121 | 62 | – | 0 | 24.4 | 4

Second part, led by results:

Row | bioavailability (in vivo [1]) [%] | Cmax (in vivo [2]) [ng/mL] | AUC (in vivo [3]) [ng·h/mL] | clearance (in vivo [4]) [mL/min/kg] | Kp at 1 h (in vivo [5]; brain and plasma) | metabolised at 0.5 h (in vitro [6]) [%] | metabolised at 0.5 h (in vitro [7]) [%] | Compound | Kp at 1 h (in vivo [5]; brain)
4 | 2 | – | – | – | 1.5 | 36.9 | 22.1 | CC(C)n1c(=O)c(C(=O)NCCCN2CCCCC2)c(O)c2ccsc21 [PRX-03140] | –
5 | 84 | 285 | 828 | 113 | – | 36.9 | 22.1 | COCCCN1CCC(NC(=O)c2cc(Cl)c(N)c3c2OCC3)CC1 [PRUCALOPRIDE] | –
